Laboratory results taken from patent US9090651B2, “Helix 12 directed pharmaceutical products” (ENDORECHERCHE, INC., priority 2004, dated 2015).
Several values for one entry are separate records, joined by “and”; a condition that tells them apart may be missing. Identical values can stand only once. Like-named read-outs stand apart in the source and are kept apart here.

Key:
[1] = test system: sebaceous glands of the left ear; assay: Topical antiandrogenic activity, ear sebaceous glands model in the male hamster; type: in vivo; details: Mesocricetus auratus, 336 h, topical on left pinna, read-out: Antiandrogenic activity in Hamster Ear Area Inh Vs Cx (%); for inhibition in vivo at 0.01 mg: 10 μg daily for 14 days; for inhibition in vivo at 0.1 mg: 100 μg daily for 14 days
Experimental: The antiandrogenic activity of compounds for topical use was determined using the ear sebaceous glands model in the male hamster.
Male Golden Syrian Hamsters (SYR) of 110-120 g were obtained from Harlan Sprague-Dawley (Madison, USA) and housed up to 2 per plastic cage in a temperature (22±3° C.) and light (12 h light/day, lights on at 7 h15)-controlled environment. The hamsters were fed with Certified Rodent Diet 5002 (pellet) and had access to tap water ad libitum. The animals were acclimatized for at least five days prior to beginning the study. Animals were randomly assigned to groups of eight hamsters. One group of hamsters were castrated under isoflurane-induced anesthesia on the day of dosing initiation (SD 1) and used as control group.
To evaluate the antiandrogenic activity, the tested compounds were applied topically on the inner part of the left ear, once daily, for 14 days. […] For animals of the castrated and intact control groups, one ten-μL vehicle was applied onto the left ear. No solution was applied on the right ear.
On Study Day 15, the hamsters were euthanized by cervical dislocation under isoflurane anesthesia. The left and right ears were collected attached together by the head skin, flat fixed on a paper and then immersed in 10% neutral buffered formalin. Punctures making a circular hole of 6 mm were made on the flat fixed ear in the region where the solution has been applied. These punch-made specimens were collected from each ear. Using a scalpel blade, the collected 6 mm round ear specimens were cut in the middle between the two cartilage ridges. The two equal parts of the ear round specimens were embedded in paraffin. After processing the tissue, the two parts were vertically embedded parallel to each other in such a way that the flat 6 mm area was facing out. From each paraffin block, one section (5 μm thick) was cut and collected on a glass slide. Thus, each slide contained two elongated sections of 6 mm length. Slides were stained with hematoxylin and eosin.
Using the video camera and the lens number X5 of the light microscope, the resulting field appearing on the screen has a length of 0.953 mm. When the first 6 mm long section was examined from the left to the right, the first and second fields were ignored and the third and fourth fields were captured for analysis by the image analyzer. Each field has the length of 0.953 mm. With the help of the screen mouse, the sebaceous glands within the whole field length (0.953 mm) were marked. Also, an area having the length of the whole field and the height between stratum granulosum and the upper edge of the cartilage was drawn.
The total area of the sebaceous glands (μm^2) in each examined field was calculated by the Image Analyser. We also measured the total area, which has the length of 0.953 mm and the height between stratum granulosum and the cartilage. In addition, the percentage of the area occupied by the glands was obtained. Thus, for each ear, two sections were cut and two fields from each section were analyzed. The total of the four readings was averaged and the mean standard error of the mean was calculated by the image analyzer. The results were expressed in μm^2 as the total surface of glands per field and also as percentage of the area occupied by the glands in the tissue.

rat prostate = assay: Systemic antiandrogenic activity, orchidectomized immature male rats with DHT implant: prostate weight; type: in vivo; details: for inhibition in vivo at 0.5 mg: Rattus norvegicus, 168 h
Experimental: (§1) Immature male rats (Crl:CD(SD)Br) 22 to 24-day old were obtained from Charles-River, Inc. (St-Constant, Quebec, Canada) and housed up to 5 per cage in plastic bins in a temperature (23±1° C.)- and light (12 h light/day, lights on at 7 h15)-controlled environment. The rats were fed rodent chow and tap water ad libitum. The day following their arrival, the animals were orchidectomized (CX) under Isoflurane anesthesia via scrotal route and randomly assigned to groups of 5 animals.
(§2) Compounds were solubilized (when possible) in dimethylsulfoxide (DMSO, 10% final concentration) and administered as suspension in 0.4% methylcellulose. […] One group of animals received the antiandrogen Flutamide as reference. The animals were killed by cervical dislocation under isoflurane anesthesia on the 8th morning following castration. The ventral prostate and seminal vesicles were rapidly dissected and weighed.
(§3) W is the weight of the prostate or the seminal vesicle.

Human Androgen Receptor = biological target: T1, Human Androgen Receptor (Homo sapiens, UniProt P10275); assay: Androgen receptor binding assay (hydroxylapatite, [3H]R1881, cytosol of transfected HEK-293 cells); details: for RBA human: Table 4, relative to R1881; for Androgen Receptor Binding (%) Human RBA R1881 = 100: % RBA=100×IC50 R1881/IC50 compound, transfected cells
T1 sequence (P10275 1-920): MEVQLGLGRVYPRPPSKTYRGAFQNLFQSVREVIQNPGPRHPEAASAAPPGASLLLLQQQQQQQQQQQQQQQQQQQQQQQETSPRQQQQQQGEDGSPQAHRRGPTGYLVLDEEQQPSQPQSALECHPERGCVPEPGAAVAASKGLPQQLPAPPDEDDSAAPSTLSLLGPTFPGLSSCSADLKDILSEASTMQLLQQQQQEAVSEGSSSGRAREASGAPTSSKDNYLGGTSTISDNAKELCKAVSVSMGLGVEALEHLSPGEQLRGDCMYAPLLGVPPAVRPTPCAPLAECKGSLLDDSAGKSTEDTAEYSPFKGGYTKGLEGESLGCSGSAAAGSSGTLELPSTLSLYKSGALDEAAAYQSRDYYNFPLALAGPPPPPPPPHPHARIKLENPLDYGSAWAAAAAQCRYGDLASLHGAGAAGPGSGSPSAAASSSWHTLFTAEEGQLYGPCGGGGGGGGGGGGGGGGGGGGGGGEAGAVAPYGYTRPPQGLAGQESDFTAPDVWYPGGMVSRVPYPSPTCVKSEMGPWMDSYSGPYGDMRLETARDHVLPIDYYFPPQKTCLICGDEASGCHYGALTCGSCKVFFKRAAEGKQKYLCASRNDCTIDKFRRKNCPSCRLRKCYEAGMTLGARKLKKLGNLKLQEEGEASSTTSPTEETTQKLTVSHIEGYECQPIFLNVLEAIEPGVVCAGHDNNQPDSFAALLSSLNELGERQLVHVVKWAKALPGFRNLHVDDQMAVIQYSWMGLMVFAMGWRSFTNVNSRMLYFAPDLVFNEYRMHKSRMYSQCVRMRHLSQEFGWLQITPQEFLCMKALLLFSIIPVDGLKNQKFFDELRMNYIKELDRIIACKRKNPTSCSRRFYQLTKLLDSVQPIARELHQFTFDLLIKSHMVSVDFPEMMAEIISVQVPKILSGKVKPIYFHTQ

rat seminal vesicle = assay: Systemic antiandrogenic activity, orchidectomized immature male rats with DHT implant: seminal vesicle weight; type: in vivo; details: for inhibition in vivo at 0.5 mg: Rattus norvegicus, 168 h
Experimental: as §1, §2, §3

[2] = test system: Shionogi mouse mammary carcinoma cells; assay: Androgenic/antiandrogenic activity on DHT-stimulated Shionogi cell growth; type: cell-based; details: for Shionogi VS OH-FLU: ratio of Ki hydroxyflutamide versus tested compound
[3] = po, 0.5 mg, per os, read-out: Prostate Rat Inh % inh (0.5 mg, per os)
[4] = po, 0.5 mg, per os, read-out: SV RAT Inh % inh (0.5 mg, per os)
[5] = Mus musculus, read-out: Shionogi IC50 (nM), Table 4, inhibition of DHT-stimulated Shionogi cell number
[6] = Mus musculus, read-out: Shionogi Antiandrogenic activity IC50 (nM), inhibition of DHT-stimulated Shionogi cell number
[7] = sc, read-out: IN VIVO Rat s.c. (+DHT) Prostate % inhibition, s.c., 0.5 mg/animal once daily for 7 days, +DHT
[8] = sc, read-out: IN VIVO Rat s.c. (+DHT) SV % inhibition, s.c., 0.5 mg/animal once daily for 7 days, +DHT
[9] = read-out: Shionogi Antiandrogenic activity IC50, inhibition of DHT-stimulated Shionogi cell number
[10] = s.c., 0.5 mg/animal once daily for 7 days, +DHT

SMILES	inhibition in vivo at 0.01 mg [1] [%]	inhibition in vivo at 0.5 mg (rat prostate; [3]) [%]	RBA human (Human Androgen Receptor) [%]	inhibition in vivo at 0.5 mg (rat seminal vesicle; [4]) [%]	IC50 [2, 5] [nM]	Shionogi VS OH-FLU ([2]; Table 4)	inhibition in vivo at 0.1 mg [1] [%]	Androgen Receptor Binding (%) Human RBA R1881 = 100 (Human Androgen Receptor)	IC50 [2, 6] [nM]	inhibition in vivo at 0.5 mg (rat prostate; [7]) [%]	inhibition in vivo at 0.5 mg (rat seminal vesicle; [8]) [%]	other results
CCCC(NC(CC)CC)c1cccc(OCC[C@]23CCC4C(CCC5CC(=O)CC[C@@]54C)C2CCC3=O)c1 (stereo partly drawn) [EM-6842]	63.8	18	451	27	0.4	183	–	–	–	–	–	–
CC(C)CN1CCCCC1c1cccc(OCC[C@]23CCC4C(CCC5CC(=O)CC[C@@]54C)C2CC[C@@H]3O)c1 (stereo partly drawn) [EM-6493]	44	15	173	19	3.6	16	63	92% and 173%	4.3	–	–	–
CCC(CC)NC(c1cccc(OCC[C@]23CCC4C(CCC5CC(=O)CC[C@@]54C)C2CC[C@@H]3O)c1)C(C)C (stereo partly drawn) [EM-6446]	56	11	715	3	1	51	79	–	–	–	–	–
CCC(CC)N(C)C(CC)c1cccc(OCC[C@]23CCC4C5CCC(=O)C=C5CCC4C2CC[C@@H]3O)c1 (stereo partly drawn) [EM-6680]	64.7	0	140	21	–	–	–	140%	1.2	0	40	IN VIVO Rat (+DHT) Prostate % inhibition (per os) (rat prostate; per os, +DHT): 0 (p.o.) %; Prostate Rat Inh % inh, s.c. (rat prostate; s.c.): 0 s.c. 0%; IN VIVO Rat (+DHT) SV % inhibition (per os) (rat seminal vesicle; per os, +DHT): 21%; SV RAT Inh % inh, s.c. (rat seminal vesicle; s.c.): 40%
CCC[C@H](NC1CCCCC1)c1cccc(OCC[C@]23CCC4C(CCC5CC(=O)CC[C@@]54C)C2CCC3=O)c1 (stereo partly drawn) [EM-6736]	49.5	–	154	–	1.8	43	–	–	–	–	–	–
CC(C)CNC(C)(C)c1cccc(OCC[C@]23CCC4C(CCC5CC(=O)CC[C@@]54C)C2CC[C@@H]3O)c1 (stereo partly drawn) [EM-6534]	48	9	112	16	0.23	267	84	112%	0.4	–	–	–
CC(C)CNC(C)(C)c1cccc(OCC[C@]23CCC4C(CCC5CC(=O)CC[C@@]54C)C2CCC3=O)c1 (stereo partly drawn) [EM-6741]	51.7	–	230	–	0.6	153	–	–	–	–	–	–
CCC(CC)NC(CC)c1cccc(OCC[C@]23CCC4C(CCC5CC(=O)CC[C@@]54C)C2CC[C@@H]3O)c1 (stereo partly drawn) [EM-6339]	55	–	236	–	2.3	–	67	240% and 236%	2.3	–	–	IC50 [2, 9]: 3 nM; IC50 ([2]; read-out: Shionogi IC50, Table 4, inhibition of DHT-stimulated Shionogi cell number): 3 nM
CCC(CC)N(C)C(CC)c1cccc(OCC[C@]23CCC4C5CCC(=O)C=C5CCC4C2CC[C@]3(C)O)c1 (stereo partly drawn) [EM-6902]	–	–	–	–	–	–	–	107%	0.06	2	0	–
CCC(NC1CCCC1)c1cc(F)cc(OCC[C@]23CCC4C(CCC5CC(=O)CC[C@@]54C)C2CC[C@@H]3O)c1 (stereo partly drawn) [EM-6761]	–	–	–	–	–	–	–	141%	1.2	33	0	–
CCCC(NC(C)C)c1cccc(OCC[C@]23CCC4C(CCC5=CC(=O)CC[C@@]54C)C2CC[C@]3(C)O)c1 (mixture of isomers) [EM-7133]	–	–	–	–	–	–	–	55%	1.1	32	40	–
CCCC(NC(CC)CC)c1cccc(OCC[C@]23CCC4C(CCC5=CC(=O)CC[C@@]54C)C2CC[C@@H]3O)c1 (stereo partly drawn) [EM-6841]	–	–	–	–	–	–	–	139%	–	–	–	IN VIVO Rat s.c. (+DHT) Prostate % inhibition (rat prostate; [10]): 21%; IN VIVO Rat s.c. (+DHT) SV % inhibition (rat seminal vesicle; [10]): 5%; IC50 [2, 9]: 0.1 nM
